Test results from US9707233B2, “Heterocyclylamines as PI3K inhibitors” (Incyte Corporation, priority 2011, dated 2017).

Target: PI3Kδ (p110δ/p85α) (Homo sapiens (Human), UniProt O00329)
Test: PI3Kδ scintillation proximity assay (Example A3)
Assay type: biochemical
Conditions: 20 μM ATP, 20 μM PIP2, 4 nM PI3Kδ; read-out: PI3Kδ SPA IC50
Procedure, shortened: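 IC50 derived by fitting percent control activity against log inhibitor concentration. Radiolabelled product was measured by scintillation counting on WGA SPA beads after overnight shaking. The kinase reaction used 4 nM p110δ/p85α, 20 μM ATP (with [γ-33P]ATP) and 20 μM PIP2 at pH 6.7 and room temperature, with 0.5% DMSO final.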

Sequence of PI3Kδ (p110δ/p85α) (O00329 whole entry): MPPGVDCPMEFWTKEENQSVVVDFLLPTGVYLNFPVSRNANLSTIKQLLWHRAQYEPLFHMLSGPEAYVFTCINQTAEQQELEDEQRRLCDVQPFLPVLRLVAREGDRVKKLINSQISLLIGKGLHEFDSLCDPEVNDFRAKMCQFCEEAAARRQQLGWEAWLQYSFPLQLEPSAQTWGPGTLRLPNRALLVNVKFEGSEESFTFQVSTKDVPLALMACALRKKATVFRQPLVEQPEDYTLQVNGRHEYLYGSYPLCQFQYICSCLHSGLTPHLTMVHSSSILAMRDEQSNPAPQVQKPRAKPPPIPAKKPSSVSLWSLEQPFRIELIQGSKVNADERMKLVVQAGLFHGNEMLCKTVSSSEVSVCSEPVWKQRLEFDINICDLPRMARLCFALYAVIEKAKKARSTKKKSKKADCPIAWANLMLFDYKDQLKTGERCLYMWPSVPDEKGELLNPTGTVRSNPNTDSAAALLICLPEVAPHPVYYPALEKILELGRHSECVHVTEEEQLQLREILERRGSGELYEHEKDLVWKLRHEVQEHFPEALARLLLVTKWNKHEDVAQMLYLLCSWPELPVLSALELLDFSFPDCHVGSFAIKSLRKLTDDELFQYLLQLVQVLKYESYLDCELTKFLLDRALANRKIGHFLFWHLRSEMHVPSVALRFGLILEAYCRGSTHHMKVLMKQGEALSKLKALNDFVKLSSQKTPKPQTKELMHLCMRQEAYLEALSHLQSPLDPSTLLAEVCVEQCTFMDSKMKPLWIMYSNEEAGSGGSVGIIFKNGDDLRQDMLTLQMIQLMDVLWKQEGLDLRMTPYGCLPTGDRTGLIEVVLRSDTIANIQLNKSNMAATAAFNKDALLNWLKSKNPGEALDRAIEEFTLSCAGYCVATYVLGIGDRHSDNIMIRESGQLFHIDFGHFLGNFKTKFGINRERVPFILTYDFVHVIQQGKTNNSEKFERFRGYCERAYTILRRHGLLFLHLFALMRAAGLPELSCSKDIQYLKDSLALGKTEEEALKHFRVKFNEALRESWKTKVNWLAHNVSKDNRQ
Sequence of PI3Kδ (p110δ/p85α) (P27986 whole entry partner): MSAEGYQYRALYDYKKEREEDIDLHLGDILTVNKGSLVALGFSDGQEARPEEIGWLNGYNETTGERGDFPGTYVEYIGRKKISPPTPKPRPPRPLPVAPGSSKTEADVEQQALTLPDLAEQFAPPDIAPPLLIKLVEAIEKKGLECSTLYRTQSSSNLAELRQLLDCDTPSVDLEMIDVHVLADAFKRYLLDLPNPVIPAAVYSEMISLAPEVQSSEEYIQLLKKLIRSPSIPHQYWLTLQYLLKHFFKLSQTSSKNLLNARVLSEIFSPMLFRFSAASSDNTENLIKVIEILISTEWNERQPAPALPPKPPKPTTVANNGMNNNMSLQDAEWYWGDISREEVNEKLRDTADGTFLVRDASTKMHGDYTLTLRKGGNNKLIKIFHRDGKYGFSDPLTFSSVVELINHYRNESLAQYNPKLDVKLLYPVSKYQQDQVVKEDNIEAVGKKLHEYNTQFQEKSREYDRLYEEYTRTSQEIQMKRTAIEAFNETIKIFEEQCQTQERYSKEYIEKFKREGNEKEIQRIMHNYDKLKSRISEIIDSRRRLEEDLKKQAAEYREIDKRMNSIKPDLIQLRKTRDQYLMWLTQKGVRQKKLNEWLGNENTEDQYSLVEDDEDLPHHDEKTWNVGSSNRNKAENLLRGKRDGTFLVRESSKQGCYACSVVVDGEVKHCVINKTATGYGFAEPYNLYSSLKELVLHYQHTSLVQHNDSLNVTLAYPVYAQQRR

| Structure (SMILES) | IC50 |
| --- | --- |
| COc1c(C(C)n2nc(C)c3c(N)ncnc32)cc(Cl)c(C)c1-c1ccc(N)nc1 (single isomer, unassigned) [Example 171, 1-(1-(3-(6-aminopyridin-3-yl)-5-chloro-2-methoxy-4-methylphenyl)ethyl)-3-methyl-1H-pyrazolo[3,4-d]pyrimidin-4-amine] | ≤ 10 nM |
| COc1c(C(C)n2nc(C)c3c(N)ncnc32)cc(Cl)c(C)c1-c1cncc(S(C)(=O)=O)c1 (single isomer, unassigned) [Example 172, 1-(1-(5-chloro-2-methoxy-4-methyl-3-(5-(methylsulfonyl)pyridin-3-yl)phenyl)ethyl)-3-methyl-1H-pyrazolo[3,4-d]pyrimidin-4-amine] | ≤ 10 nM |
| CNC(=O)c1ccc(-c2c(C)c(Cl)cc(C(C)n3nc(C)c4c(N)ncnc43)c2OC)cn1 (single isomer, unassigned) [Example 173, 5-(3-(1-(4-amino-3-methyl-1H-pyrazolo[3,4-d]pyrimidin-1-yl)ethyl)-5-chloro-2-methoxy-6-methylphenyl)-N-methylpicolinamide] | ≤ 10 nM |
| COc1c(C(C)n2nc(C)c3c(N)ncnc32)cc(Cl)c(C)c1-c1cncc(C(=O)N(C)CCO)c1 (single isomer, unassigned) [Example 175, 5-{3-[1-(4-amino-3-methyl-1H-pyrazolo[3,4-d]pyrimidin-1-yl)ethyl]-5-chloro-2-methoxy-6-methylphenyl}-N-(2-hydroxyethyl)-N-methylnicotinamide] | ≤ 10 nM |
| COc1c(C(C)n2nc(C)c3c(N)ncnc32)cc(Cl)c(C)c1-c1cncc(C(=O)N2CCC(O)CC2)c1 (single isomer, unassigned) [Example 176, 1-[(5-{3-[1-(4-amino-3-methyl-1H-pyrazolo[3,4-d]pyrimidin-1-yl)ethyl]-5-chloro-2-methoxy-6-methylphenyl}pyridin-3-yl)carbonyl]piperidin-4-ol] | ≤ 10 nM |
| COc1c(C(C)n2nc(C)c3c(N)ncnc32)cc(Cl)c(C)c1-c1cncc(C(=O)N(C)CCN)c1 (single isomer, unassigned) [Example 178, 5-(3-(1-(4-amino-3-methyl-1H-pyrazolo[3,4-d]pyrimidin-1-yl)ethyl)-5-chloro-2-methoxy-6-methylphenyl)-N-(2-aminoethyl)-N-methylnicotinamide] | ≤ 10 nM |
| COc1c(C(C)n2nc(C)c3c(N)ncnc32)cc(Cl)c(C)c1CCC(=O)N(C)C (single isomer, unassigned) [Example 180, 3-(3-(1-(4-Amino-3-methyl-1H-pyrazolo[3,4-d]pyrimidin-1-yl)ethyl)-5-chloro-2-methoxy-6-methylphenyl)-N,N-dimethylpropanamide] | ≤ 10 nM |
| COc1c(C(C)n2nc(C)c3c(N)ncnc32)cc(Cl)c(C)c1-c1ccc(N(C)C)nc1 (single isomer, unassigned) [Example 185, 1-(1-(5-chloro-3-(6-(dimethylamino)pyridin-3-yl)-2-methoxy-4-methylphenyl)ethyl)-3-methyl-1H-pyrazolo[3,4-d]pyrimidin-4-amine] | ≤ 10 nM |
| COc1c(C(C)n2nc(C)c3c(N)ncnc32)cc(Cl)c(C)c1-c1ccnc(N(C)C)c1 (single isomer, unassigned) [Example 186, 1-(1-(5-chloro-3-(2-(dimethylamino)pyridin-4-yl)-2-methoxy-4-methylphenyl)ethyl)-3-methyl-1H-pyrazolo[3,4-d]pyrimidin-4-amine] | ≤ 10 nM |
| COc1c(C(C)n2nc(C)c3c(N)ncnc32)cc(Cl)c(C)c1-c1ccnc(N2CC(O)C2)c1 (single isomer, unassigned) [Example 187, 1-(4-(3-(1-(4-amino-3-methyl-1H-pyrazolo[3,4-d]pyrimidin-1-yl)ethyl)-5-chloro-2-methoxy-6-methylphenyl)pyridin-2-yl)azetidin-3-ol] | ≤ 10 nM |
| COc1c(C(C)n2nc(C)c3c(N)ncnc32)cc(Cl)c(C)c1C1CC1 (single isomer, unassigned) [Example 192, 1-[1-(5-Chloro-3-cyclopropyl-2-methoxy-4-methylphenyl)ethyl]-3-methyl-1H-pyrazolo[3,4-d]pyrimidin-4-amine] | 10 to 50 nM |
| COc1c(C(C)n2nc(C)c3c(N)ncnc32)cc(Cl)c(C)c1CC1CC1 (single isomer, unassigned) [Example 193, 1-{1-[5-Chloro-3-(cyclopropylmethyl)-2-methoxy-4-methylphenyl]ethyl}-3-methyl-1H-pyrazolo[3,4-d]pyrimidin-4-amine] | 50 to 200 nM |
| CCOc1c(C(C)n2nc(C)c3c(N)ncnc32)cc(Cl)c(C)c1-c1ccc(C(=O)NC)nc1 (single isomer, unassigned) [Example 199, 5-(3-(1-(4-amino-3-methyl-1H-pyrazolo[3,4-d]pyrimidin-1-yl)ethyl)-5-chloro-2-ethoxy-6-methylphenyl)-N-methylpicolinamide] | ≤ 10 nM |
| CCOc1c(C(C)n2nc(C)c3c(N)ncnc32)cc(Cl)c(C)c1-c1ccnc(C(=O)N(C)CCO)c1 (single isomer, unassigned) [Example 202, 4-(3-(1-(4-amino-3-methyl-1H-pyrazolo[3,4-d]pyrimidin-1-yl)ethyl)-5-chloro-2-ethoxy-6-methylphenyl)-N-(2-hydroxyethyl)-N-methylpicolinamide] | ≤ 10 nM |
| CCOc1c(C(C)n2nc(C)c3c(N)ncnc32)cc(Cl)c(C)c1-c1cnn(CC(=O)NC)c1 (single isomer, unassigned) [Example 204, 2-(4-(3-(1-(4-amino-3-methyl-1H-pyrazolo[3,4-d]pyrimidin-1-yl)ethyl)-5-chloro-2-ethoxy-6-methylphenyl)-1H-pyrazol-1-yl)-N-methylacetamide] | ≤ 10 nM |
| CCOc1c(C(C)n2nc(C)c3c(N)ncnc32)cc(Cl)c(C)c1-c1cnn(CC(=O)N(C)C)c1 (single isomer, unassigned) [Example 205, 2-(4-(3-(1-(4-amino-3-methyl-1H-pyrazolo[3,4-d]pyrimidin-1-yl)ethyl)-5-chloro-2-ethoxy-6-methylphenyl)-1H-pyrazol-1-yl)-N,N-dimethylacetamide] | ≤ 10 nM |

The remaining lines, values ahead:

| IC50 | Structure (SMILES) |
| --- | --- |
| ≤ 10 nM | COc1c(C(C)n2nc(C)c3c(N)ncnc32)cc(Cl)c(C)c1-c1cnn(CC(=O)N(C)C)c1 (single isomer, unassigned) [Example 206, 2-(4-(3-(1-(4-amino-3-methyl-1H-pyrazolo[3,4-d]pyrimidin-1-yl)ethyl)-5-chloro-2-methoxy-6-methylphenyl)-1H-pyrazol-1-yl)-N,N-dimethylacetamide] |
| 10 to 50 nM | COc1c(C(C)n2nc(C)c3c(N)ncnc32)cc(C#N)c(C)c1-c1cnn(C)c1 (single isomer, unassigned) [Example 209, 5-[1-(4-Amino-3-methyl-1H-pyrazolo[3,4-d]pyrimidin-1-yl)ethyl]-4-methoxy-2-methyl-3-(1-methyl-1H-pyrazol-4-yl)benzonitrile] |
| ≤ 10 nM | CCOc1c(C(C)n2nc(C)c3c(N)ncnc32)cc(C#N)c(C)c1-c1cnn(C)c1 (single isomer, unassigned) [Example 210, 5-[1-(4-Amino-3-methyl-1H-pyrazolo[3,4-d]pyrimidin-1-yl)ethyl]-4-ethoxy-2-methyl-3-(1-methyl-1H-pyrazol-4-yl)benzonitrile] |
| ≤ 10 nM | CCOc1c(C(C)n2nc(C)c3c(N)ncnc32)cc(Cl)c(C#N)c1C1CN(CC(C)C)C1 (single isomer, unassigned) [Example 216, 4-[1-(4-Amino-3-methyl-1H-pyrazolo[3,4-d]pyrimidin-1-yl)ethyl]-6-chloro-3-ethoxy-2-(1-isobutylazetidin-3-yl)benzonitrile] |
| ≤ 10 nM | CCOc1c(C(C)n2nc(C)c3c(N)ncnc32)cc(Cl)c(C#N)c1C1CN(C2CCC2)C1 (single isomer, unassigned) [Example 218, 4-[1-(4-Amino-3-methyl-1H-pyrazolo[3,4-d]pyrimidin-1-yl)ethyl]-6-chloro-2-(1-cyclobutylazetidin-3-yl)-3-ethoxybenzonitrile] |
| ≤ 10 nM | CCOc1c(C(C)n2nc(C)c3c(N)ncnc32)cc(Cl)c(C#N)c1C1CN(CCO)C1 (single isomer, unassigned) [Example 219, 4-[1-(4-Amino-3-methyl-1H-pyrazolo[3,4-d]pyrimidin-1-yl)ethyl]-6-chloro-3-ethoxy-2-[1-(2-hydroxyethyl)azetidin-3-yl]benzonitrile] |
| ≤ 10 nM | CCOc1c(C(C)n2nc(C)c3c(N)ncnc32)cc(Cl)c(C#N)c1C1CN(C(COC)COC)C1 (single isomer, unassigned) [Example 226, 4-[1-(4-Amino-3-methyl-1H-pyrazolo[3,4-d]pyrimidin-1-yl)ethyl]-6-chloro-3-ethoxy-2-{1-[2-methoxy-1-(methoxymethyl)ethyl]azetidin-3-yl}benzonitrile] |
| ≤ 10 nM | CCOc1c(C(C)n2nc(C)c3c(N)ncnc32)cc(Cl)c(C#N)c1C1CN(C2CCOC2)C1 (single isomer, unassigned) [Example 227, 4-[1-(4-Amino-3-methyl-1H-pyrazolo[3,4-d]pyrimidin-1-yl)ethyl]-6-chloro-3-ethoxy-2-[1-(tetrahydrofuran-3-yl)azetidin-3-yl]benzonitrile] |
| ≤ 10 nM | CCOc1c(C(C)n2nc(C)c3c(N)ncnc32)cc(Cl)c(C#N)c1C1CN(CC2CCOC2)C1 (single isomer, unassigned) [Example 230, 4-[1-(4-Amino-3-methyl-1H-pyrazolo[3,4-d]pyrimidin-1-yl)ethyl]-6-chloro-3-ethoxy-2-[1-(tetrahydrofuran-3-ylmethyl)azetidin-3-yl]benzonitrile] |
| ≤ 10 nM | CCOc1c(C(C)n2nc(C)c3c(N)ncnc32)cc(Cl)c(C#N)c1C1CN(CC2CCOCC2)C1 (single isomer, unassigned) [Example 232, 4-[1-(4-Amino-3-methyl-1H-pyrazolo[3,4-d]pyrimidin-1-yl)ethyl]-6-chloro-3-ethoxy-2-[1-(tetrahydro-2H-pyran-4-ylmethyl)azetidin-3-yl]benzonitrile] |
